Experimental findings from PubChem BioAssay (NCI) are described below.

Among the test systems are COLO 205 colon; SF-295 CNS; T-47D breast; SK-MEL-28 melanoma; 786-0 renal; MDA-MB-231 breast; SK-MEL-2 melanoma; PC-3 prostate; UACC-62 melanoma; SN12C renal.
Holding throughout (assay): growth of human tumour cells (NCI), 48 h

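Results reflect a 48-hour exposure of cells in 96-well plates to compound at five concentrations. TGI denotes the concentration required for complete inhibition of growth.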

As to `O=C(O)c1c2c(cc3c1CC1(Cc4cc5c(cc4C1=O)CCC5)C3)CCC2` (configuration not stated), the TGI in the assay on COLO 205 colon was above 100 µM; with SF-295 CNS, above 100 µM; in the assay with T-47D breast it was above 100 µM; in the assay with SK-MEL-28 melanoma it was 82.5 µM; with 786-0 renal it was above 100 µM; in the assay on MDA-MB-231 breast it was above 100 µM. Besides, the TGI in the assay with SK-MEL-2 melanoma, in the assay with PC-3 prostate, in the assay with UACC-62 melanoma and in the assay with SN12C renal was above 100 µM in each case.

Turning to `COC(=O)C1CCC(=O)N1C(c1cc(OC)c(OC)c(OC)c1)c1cccc2ccccc12` (configuration not stated), the TGI with SF-295 CNS, with T-47D breast, in the assay with SK-MEL-28 melanoma, in the assay with 786-0 renal, with MDA-MB-231 breast and with SK-MEL-2 melanoma was above 100 µM in each case. The TGI with PC-3 prostate, in the assay on UACC-62 melanoma and in the assay on SN12C renal was above 100 µM each time.

Turning to `Cc1c(C)c(C)c(-n2c(=O)n(C)c(=O)n2-c2cc(C(C)(C)C)cc(C(C)(C)C)c2O)c(C)c1C`, the TGI was 20 µM with COLO 205 colon; 21.2 µM in the assay on SF-295 CNS; 18.6 µM in the assay with T-47D breast; 28 µM in the assay on SK-MEL-28 melanoma; 22.4 µM in the assay with 786-0 renal; 17 µM with MDA-MB-231 breast. The TGI turned out to be 20.3 µM with SK-MEL-2 melanoma, 12 µM in the assay on PC-3 prostate, 23.7 µM in the assay with UACC-62 melanoma and 21.7 µM in the assay on SN12C renal.

For the molecule `N#Cc1cc(Sc2ccc(N)c(C#N)c2)ccc1N`, the TGI in the assay on COLO 205 colon is 23.7 µM; in the assay on SF-295 CNS, above 100 µM; with T-47D breast, above 100 µM; with SK-MEL-28 melanoma, above 100 µM; in the assay on 786-0 renal, 43.3 µM; in the assay on MDA-MB-231 breast, above 100 µM. The TGI in the assay with SK-MEL-2 melanoma, in the assay with PC-3 prostate, in the assay on UACC-62 melanoma and in the assay on SN12C renal was above 100 µM each time.

Consider `O=C1CSC(c2ccc([N+](=O)[O-])cc2)N1c1ccc(-c2ccc(-n3c(-c4ccccc4)nc4ccccc4c3=O)cc2)cc1` (configuration not stated), for which the TGI in the assay with COLO 205 colon, with SF-295 CNS, with T-47D breast, with SK-MEL-28 melanoma, with 786-0 renal and in the assay with MDA-MB-231 breast was above 100 µM throughout. Besides, the TGI in the assay on SK-MEL-2 melanoma, in the assay on PC-3 prostate, with UACC-62 melanoma and in the assay on SN12C renal was above 100 µM each time.

Regarding `CCN(CC)CC1CN=C(N)O1` (configuration not stated), the TGI in the assay with COLO 205 colon, with SF-295 CNS, in the assay on T-47D breast, in the assay on SK-MEL-28 melanoma, in the assay on 786-0 renal and with MDA-MB-231 breast was above 100 µM throughout. Further, the TGI with SK-MEL-2 melanoma, in the assay with PC-3 prostate, in the assay on UACC-62 melanoma and in the assay with SN12C renal was above 100 µM in each case.

In the case of `Cc1cc(S(=O)(=O)Nc2nncn2-c2ccc(Cl)cc2)c(S)cc1Cl`, the TGI in the assay on COLO 205 colon, in the assay on SF-295 CNS, in the assay on T-47D breast, in the assay on SK-MEL-28 melanoma, in the assay on 786-0 renal and in the assay on MDA-MB-231 breast was above 10 µM throughout. The TGI with SK-MEL-2 melanoma, in the assay with PC-3 prostate, in the assay on UACC-62 melanoma and in the assay with SN12C renal was above 10 µM throughout.

`O=c1c2cnccc2cc2c3ccccc3ccn12`: the TGI in the assay with COLO 205 colon, with SF-295 CNS, in the assay with T-47D breast, with SK-MEL-28 melanoma, with 786-0 renal and in the assay on MDA-MB-231 breast was above 100 µM throughout. Moreover, the TGI in the assay on SK-MEL-2 melanoma, with PC-3 prostate, in the assay with UACC-62 melanoma and in the assay on SN12C renal was above 100 µM throughout.

As to `COC(=O)C1=C(O)CCCC(C2CCCCC(=O)C2C(=O)OC)=C1` (configuration not stated), the TGI in the assay with COLO 205 colon, in the assay on SF-295 CNS, in the assay with T-47D breast, with SK-MEL-28 melanoma, in the assay with 786-0 renal and in the assay with MDA-MB-231 breast was above 100 µM throughout. In addition, the TGI in the assay with SK-MEL-2 melanoma was above 100 µM; in the assay with PC-3 prostate, above 100 µM; in the assay on UACC-62 melanoma, 42.3 µM; with SN12C renal, above 100 µM.

On to `COC(=O)C1=C(C(=O)OC)C(N(C)C)C(C(=O)OC)=C(C(=O)OC)S1`, for which the TGI in the assay with COLO 205 colon, with SF-295 CNS, in the assay with T-47D breast, with SK-MEL-28 melanoma, with 786-0 renal and in the assay on MDA-MB-231 breast was above 100 µM each time. Besides, the TGI in the assay with SK-MEL-2 melanoma, in the assay on PC-3 prostate, in the assay on UACC-62 melanoma and with SN12C renal was above 100 µM in each case.

As for `CC1SC2(CCCCC2)N(NC(=O)CSc2nc3ccc(Cl)cc3c(=O)n2-c2ccccc2)C1=O` (configuration not stated), the TGI with COLO 205 colon was 29.2 µM; in the assay with SF-295 CNS, 36.8 µM; in the assay on T-47D breast, above 100 µM; with SK-MEL-28 melanoma, 88.4 µM; in the assay with 786-0 renal, 34.9 µM; in the assay with MDA-MB-231 breast it was 35 µM. The TGI stood at 31.8 µM in the assay on SK-MEL-2 melanoma, 56.1 µM in the assay on PC-3 prostate, 37.5 µM in the assay on UACC-62 melanoma and 32.5 µM with SN12C renal.

Turning to `COc1c(Br)cc2ccccc2c1-c1c(OC)c(Br)cc2ccccc12`, the TGI with COLO 205 colon, in the assay with SF-295 CNS, with T-47D breast, with SK-MEL-28 melanoma, with 786-0 renal and in the assay on MDA-MB-231 breast was above 100 µM throughout. For the same molecule, the TGI in the assay on SK-MEL-2 melanoma, in the assay with PC-3 prostate and in the assay with UACC-62 melanoma was above 100 µM in each case.

Consider `O=C(O)/C(=C\c1ccc(O)cc1)c1cccc2ccccc12`, for which the TGI with SF-295 CNS, with T-47D breast, in the assay with SK-MEL-28 melanoma, in the assay with 786-0 renal, in the assay on MDA-MB-231 breast and in the assay on SK-MEL-2 melanoma was above 100 µM throughout. The TGI with PC-3 prostate, with UACC-62 melanoma and with SN12C renal was above 100 µM in each case.
